The text below walks through data of patent publication US20260347364A1, “PYRAZOLO[4,3-F]QUINAZOLINE DERIVATIVES AS MODULATORS OF G12D MUTANT KRAS USEFUL FOR THE TREATMENT OF CANCER” (JAZZ PHARMACEUTICALS IRELAND LTD., priority 2023, published 2026).

The target in test [1] is T1, KRAS G12D (Homo sapiens, UniProt P01116, G12D).
T1 construct: aa1-188 KRAS WT, HRAS WT, NRAS WT, or KRAS containing the G12D
Nature of the test: HTRF nucleotide exchange assay, KRAS G12D. It counts as biochemical. Conditions: class symbols; for IC50: HTRF nucleotide exchange assay (NEA). On the procedure: (§1) HTRF Nucleotide Exchange Assay Method
(§2) The capacity of compounds to bind KRAS G12D, other KRAS mutants and wildtype RAS isoforms was quantified using a HTRF nucleotide exchange assay. Recombinant human RAS protein (2 nM; aa1-188 KRAS WT, HRAS WT, NRAS WT, or KRAS containing the G12D, G13D or Q61H amino acid substitutions, or 4 nM KRAS; aa1-188 containing the G12V, G12C, G12A or G12S amino acid substitution, an N-terminal 6× His-tag and leader sequence), and 2 nM Europium-labeled anti-6× His antibody were mixed in assay buffer (10 mM HEPES pH 7.3, 150 mM NaCl, 5 mM MgCl2, 0.05% BSA, 0.0025% NP-40 and 100 mM KF) with various concentrations of compound in a 384-well plate and a volume of 5 μL. After a 60-minute incubation at room temperature, 5 μl of 200 nM EDA-GTP-DY647P1 (diluted in assay buffer) was added to the plate. Following 30-minute incubation at room temperature, time-resolved fluorescence was measured on a PerkinElmer Envision plate reader. DMSO (0.3%) and unlabeled GDP (1 μM) or equivalent tool compound were used to generate the Max and Min assay signals, respectively. Data was analysed using a four-parameter logistic model to calculate IC50 values, with at least two independent replicates were performed for each compound. The results are presented as IC50s in Table 29 where “A” corresponds to an IC50 ≤10 nM, “B” to an IC50 >10 nM up to 100 nM, “C” is >100 nM up to 10 μM, “D” represents <49% inhibition at 10 μM and ND=not determined: […]

Test [2] addresses T2, KRAS WT (Homo sapiens, UniProt P01116).
T2 construct: aa1-188 KRAS WT
Nature of the test: HTRF nucleotide exchange assay, KRAS WT. Conditions: class symbols; for IC50: HTRF nucleotide exchange assay (NEA). It counts as biochemical. Here is the method:
as §1, §2

Bounds are passed on as bounds.

As usually defined, the IC50 is the midpoint of a concentration-inhibition curve. High values mean weaker potency, low ones greater potency. On to `CCc1c(F)ccc2cc(O)cc(-c3c(C)c4nc(OC[C@]5(C)CCCN5)nc(N5CCC[C@@](C)(O)C5)c4c4cn(C)nc34)c12` (mixture of isomers) [Example 211, (3R)-1-[4-(8-ethyl-7-fluoro-3-hydroxy-1-naphthyl)-2,5-dimethyl-7-[[rac-(2S)-2-methylpyrrolidin-2-yl]methoxy]pyrazolo[4,3-f]quinazolin-9-yl]-3-methyl-piperidin-3-ol], for which the 50% inhibitory concentration (IC50) in test [1] and in test [2] was at most 0.01 µM throughout.
For `CCc1c(F)ccc2cc(O)cc(-c3cc4nc(O[C@@H](C)[C@@H]5CCCN5C)nc(N5CCCn6nc(C(=O)N(C)C)cc6C5)c4c4cn(C)nc34)c12` (racemic) [Example 54, 5-[4-(8-ethyl-7-fluoro-3-hydroxy-1-naphthyl)-2-methyl-7-[rac-(1S)-1-[rac-(2S)-1-methylpyrrolidin-2-yl]ethoxy]pyrazolo[4,3-f]quinazolin-9-yl]-N,N-dimethyl-4,6,7,8-tetrahydropyrazolo[1,5-a][1,4]diazepine-2-carboxamide], the IC50 in test [1] and in test [2] was 0.1 to 10 µM each time.
As to `CN(C)C(=O)c1cc2n(n1)CCCN(c1nc(OC[C@@]34CCCN3C[C@H](F)C4)nc3cc(-c4cc(O)ccc4C(F)(F)F)c4nn(C)cc4c13)C2` (racemic) [Example 64, 5-[4-[5-hydroxy-2-(trifluoromethyl)phenyl]-2-methyl-7-[[rac-(2R,8S)-2-fluoro-1,2,3,5,6,7-hexahydropyrrolizin-8-yl]methoxy]pyrazolo[4,3-f]quinazolin-9-yl]-N,N-dimethyl-4,6,7,8-tetrahydropyrazolo[1,5-a][1,4]diazepine-2-carboxamide], the IC50 is 0.01 to 0.1 µM in test [1] and 0.1 to 10 µM in test [2].
Turning to `CCc1c(F)ccc2cc(O)cc(-c3cc4nc(OCC5(C)C[C@@H](O)CN5C)nc(N5CCCn6nc(C(=O)N(C)C)cc6C5)c4c4cn(C)nc34)c12` (mixture of isomers) [Example 68, 5-[4-(8-ethyl-7-fluoro-3-hydroxy-1-naphthyl)-2-methyl-7-[rac-(4R)-4-hydroxy-1,2-dimethyl-pyrrolidin-2-yl]methoxy]pyrazolo[4,3-f]quinazolin-9-yl]-N,N-dimethyl-4,6,7,8-tetrahydropyrazolo[1,5-a][1,4]diazepine-2-carboxamide], the IC50 in test [1] and in test [2] was at most 0.01 µM each time.
Take `CCc1c(F)ccc2cc(O)cc(-c3cc4nc(OC[C@@]56CCCN5C[C@H](F)C6)nc(N5CCC(O)C5)c4c4cn(C)nc34)c12` (mixture of isomers) [Example 117, 1-[4-(8-ethyl-7-fluoro-3-hydroxy-1-naphthyl)-2-methyl-7-[[rac-(2R,8S)-2-fluoro-1,2,3,5,6,7-hexahydropyrrolizin-8-yl]methoxy]pyrazolo[4,3-f]quinazolin-9-yl]pyrrolidin-3-ol]: the IC50 in test [1] and in test [2] was at most 0.01 µM each time.
On to `CCc1c(F)ccc2cc(O)cc(-c3c(F)c4nc(OCC5(C)C[C@@H](O)CN5C)nc(N5CCOCC(C)(O)C5)c4c4cn(C)nc34)c12` (mixture of isomers) [Example 153, 4-[4-(8-ethyl-7-fluoro-3-hydroxy-1-naphthyl)-5-fluoro-2-methyl-7-[[rac-(4R)-4-hydroxy-1,2-dimethyl-pyrrolidin-2-yl]methoxy]pyrazolo[4,3-f]quinazolin-9-yl]-6-methyl-1,4-oxazepan-6-ol], for which the IC50 in test [1] and in test [2] was at most 0.01 µM in each case.
Regarding `CCc1c(F)ccc2cc(O)cc(-c3c(C)c4nc(OC[C@@]56CCCN5C[C@H](F)C6)nc(N5CCCn6nc(C(=O)N(C)C)nc6C5)c4c4cn(C)nc34)c12` (racemic) [Example 198, 8-[4-(8-ethyl-7-fluoro-3-hydroxy-1-naphthyl)-2,5-dimethyl-7-[[rac-(2R,8S)-2-fluoro-1,2,3,5,6,7-hexahydropyrrolizin-8-yl]methoxy]pyrazolo[4,3-f]quinazolin-9-yl]-N,N-dimethyl-5,6,7,9-tetrahydro-[1,2,4]triazolo[1,5-a][1,4]diazepine-2-carboxamide], the IC50 in test [1] and in test [2] was at most 0.01 µM throughout.
As for `CCc1c(F)ccc2cc(O)cc(-c3c(F)c4nc(OCC5(CN6C[C@@H]7C[C@H]6CO7)CC5)nc(N5CCOCC(C)(O)C5)c4c4cn(C)nc34)c12` (mixture of isomers) [Example 226, 4-[4-(8-ethyl-7-fluoro-3-hydroxy-1-naphthyl)-5-fluoro-2-methyl-7-[[1-[[rac-(1S,4S)-2-oxa-5-azabicyclo[2.2.1]heptan-5-yl]methyl]cyclopropyl]methoxy]pyrazolo[4,3-f]quinazolin-9-yl]-6-methyl-1,4-oxazepan-6-ol], the concentration for half-maximal inhibition (IC50) in test [1] and in test [2] was at most 0.01 µM in each case.
On to `C#Cc1c(F)ccc2cc(O)cc(-c3cc4nc(OC[C@@]56CCCN5C[C@H](F)C6)nc(N5CCCNCC5)c4c4cn(C)nc34)c12` (single isomer, unassigned) [Example 35], for which the IC50 in test [1] lay in the range of 0.1 to 10 µM. In test [2], the “KRAS^WT NEA” value is reported as “D (<49% inhibition at 10 μM)”.
For the compound `C#Cc1c(F)ccc2cc(O)cc(-c3cc4nc(OC[C@@]56CCCN5C[C@H](F)C6)nc(N5CCCNCC5)c4c4cn(C)nc34)c12` (single isomer, unassigned) [Example 36], the IC50 in test [1] was at most 0.01 µM; in test [2] it was 0.01 to 0.1 µM.
With `Cn1cc2c(n1)c(-c1cccc3sc(N)c(C#N)c13)cc1nc(OC[C@@]34CCCN3C[C@H](F)C4)nc(N3CCCOCC3)c12` [Example 3, 2-amino-4-[2-methyl-9-(1,4-oxazepan-4-yl)-7-[[(2R,8S)-2-fluoro-1,2,3,5,6,7-hexahydropyrrolizin-8-yl]methoxy]pyrazolo[4,3-f]quinazolin-4-yl]benzothiophene-3-carbonitrile], in test [1], the “KRAS^G12D NEA” value is “D (<49% inhibition at 10 μM)”. The IC50 in test [2] lay within 0.1 to 10 µM.
As for `Cn1cc2c(n1)c(-c1c(O)cccc1F)cc1nc(OC[C@@]34CCCN3C[C@H](F)C4)nc(N3CCCOCC3)c12` [Example 4, 3-fluoro-2-[2-methyl-9-(1,4-oxazepan-4-yl)-7-[[(2R,8S)-2-fluoro-1,2,3,5,6,7-hexahydropyrrolizin-8-yl]methoxy]pyrazolo[4,3-f]quinazolin-4-yl]phenol], the “KRAS^G12D NEA” value in test [1] is recorded as “D (<49% inhibition at 10 μM)”. Moreover, in test [2], the “KRAS^WT NEA” value is listed as “D (<49% inhibition at 10 μM)”.
In turn, `Cn1cc2c(n1)c(-c1cc(O)ccc1F)cc1nc(OC[C@@]34CCCN3C[C@H](F)C4)nc(N3CCCOCC3)c12` [Example 5] came in with an IC50 in test [1] of 0.1 to 10 µM. In addition, the “KRAS^WT NEA” value in test [2] is on record as “D (<49% inhibition at 10 μM)”.
Regarding `CCc1c(F)ccc2cc(O)cc(-c3cc4nc(OCC56CCCN5CCC6)nc(N5CCCOCC5)c4c4cn(C)nc34)c12` [Example 6, 5-ethyl-6-fluoro-4-[7-(1,2,3,5,6,7-hexahydropyrrolizin-8-ylmethoxy)-2-methyl-9-(1,4-oxazepan-4-yl)pyrazolo[4,3-f]quinazolin-4-yl]naphthalen-2-ol], the IC50 in test [1] and in test [2] was at most 0.01 µM each time.
Turning to `CCc1c(F)ccc2cc(O)cc(-c3cc4nc(OC[C@@]56CCCN5C[C@H](F)C6)nc(N5CCOCC(C)(O)C5)c4c4cn(C)nc34)c12` (stereo partly drawn) [Example 8, 4-[4-(8-ethyl-7-fluoro-3-hydroxy-1-naphthyl)-2-methyl-7-[[(2R,8S)-2-fluoro-1,2,3,5,6,7-hexahydropyrrolizin-8-yl]methoxy]pyrazolo[4,3-f]quinazolin-9-yl]-6-methyl-1,4-oxazepan-6-ol], the IC50 in test [1] and in test [2] was at most 0.01 µM each time.
For the compound `CCc1c(F)ccc2cc(O)cc(-c3c(F)c4nc(OCC5(CN6CC(O)C(F)(F)C6)CC5)nc(N5CCOCC(C)(O)C5)c4c4cn(C)nc34)c12` (stereo not drawn) [Example 237, 4-[7-[[1-[(3,3-difluoro-4-hydroxy-pyrrolidin-1-yl)methyl]cyclopropyl]methoxy]-4-(8-ethyl-7-fluoro-3-hydroxy-1-naphthyl)-5-fluoro-2-methyl-pyrazolo[4,3-f]quinazolin-9-yl]-6-methyl-1,4-oxazepan-6-ol], the IC50 in test [1] was at most 0.01 µM.
Same read-out and setting: with `CCc1c(F)ccc2cc(O)cc(-c3c(F)c4nc(OC[C@@H]5CCN5C)nc(N5CCC[C@@](C)(O)C5)c4c4cn(C)nc34)c12` [Example 239, (3R)-1-[4-(8-ethyl-7-fluoro-3-hydroxy-1-naphthyl)-5-fluoro-2-methyl-7-[[(2S)-1-methylazetidin-2-yl]methoxy]pyrazolo[4,3-f]quinazolin-9-yl]-3-methyl-piperidin-3-ol] the figure was at most 0.01 µM; with `CCc1c(F)ccc2cc(O)cc(-c3c(C)c4nc(OCC5(CF)COC5)nc(N5CC6CCC(C5)N6)c4c4cn(C)nc34)c12` [Example 247, 4-[9-(3,8-diazabicyclo[3.2.1]octan-3-yl)-7-[[3-(fluoromethyl)oxetan-3-yl]methoxy]-2,5-dimethyl-pyrazolo[4,3-f]quinazolin-4-yl]-5-ethyl-6-fluoro-naphthalen-2-ol], at most 0.01 µM.
